Like-named read-outs stand apart in the source and are kept apart here.
Target: T1, Chk1 (Homo sapiens, UniProt O14757)
T1 construct: purchased Upstate Biotechnology
T1 sequence (O14757 1-476): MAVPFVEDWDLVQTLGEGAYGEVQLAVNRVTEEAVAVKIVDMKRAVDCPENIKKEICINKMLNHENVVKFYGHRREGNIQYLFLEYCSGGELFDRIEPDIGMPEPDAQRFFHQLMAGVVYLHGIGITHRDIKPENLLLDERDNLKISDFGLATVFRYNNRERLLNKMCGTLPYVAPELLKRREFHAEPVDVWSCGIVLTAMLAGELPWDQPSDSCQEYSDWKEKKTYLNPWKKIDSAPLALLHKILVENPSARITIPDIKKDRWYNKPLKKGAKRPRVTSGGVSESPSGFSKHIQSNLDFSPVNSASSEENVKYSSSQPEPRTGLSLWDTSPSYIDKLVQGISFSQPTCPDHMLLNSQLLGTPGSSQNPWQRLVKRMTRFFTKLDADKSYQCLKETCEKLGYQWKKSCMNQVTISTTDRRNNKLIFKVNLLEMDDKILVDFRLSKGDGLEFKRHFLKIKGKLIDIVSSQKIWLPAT
Test: Chk1 kinase assay: incorporation of γ-33P ATP into immobilized myelin basic protein
Format: biochemical
Conditions: read-out: Chk1 IC50
Summary of the method: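 Incorporation of γ-33P into myelin basic protein coated on plates was scintillation-counted after 1 h at room temperature, duplicate points. Unlabeled ATP was 10 μM with 10 nM Chk1, 30 μM with 20 nM Chk2; buffer Hepes pH 7.6, MgCl2, DTT, 1% DMSO. Output IC50, optionally converted to Ki.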

[1] = Table 11, Chk1 only, class symbols A-D

Row | SMILES | IC50 [nM] | IC50 (Table 11, Chk1 only) [nM] | also measured
1 | Cc1nc(-c2nc(-c3cccc(C(=O)N[C@H]4CCc5ccccc54)c3)cnc2N)nn1C [Example 799, 3-[5-amino-6-(1,5-dimethyl-1H-1,2,4-triazol-3-yl)pyrazin-2-yl]-N-[(1S)-2,3-dihydro-1H-inden-1-yl]benzamide] | – | ≥ 10000 | –
2 | CNC(=O)c1nc(-c2cccc(CNC3CCc4c(OCCN5CCOCC5)cccc43)c2)cnc1N (stereo not shown) [Example 514, 3-amino-N-methyl-6-{3-[({4-[(2-morpholin-4-ylethyl)oxy]-2,3-dihydro-1H-inden-1-yl}amino)methyl]phenyl}pyrazine-2-carboxamide] | – | 50 to 1000 | –
3 | CNC(=O)c1nc(-c2cccc(OCCN3CCN(c4ccccc4)CC3)c2)cnc1N [Example 181, 3-amino-N-methyl-6-(3-{[2-(4-phenylpiperazin-1-yl)ethyl]oxy}phenyl)pyrazine-2-carboxamide] | 50 to 1000 | – | –
4 | Nc1ncc(-c2cccc(C(=O)NCc3ccccc3Br)c2)nc1C(=O)N[C@H]1CCCNC1 [Example 872, 3-amino-6-[3-({[(2-bromophenyl)methyl]amino}carbonyl)phenyl]-N-[(3S)-piperidin-3-yl]pyrazine-2-carboxamide] | – | – | IC50 [1]: < 50 nM
5 | N=C(N)N/N=C/c1nc(-c2cccc(C(=O)NCc3ccccc3)c2)cnc1N [Example 676, 3-[5-amino-6-((E)-{[amino(imino)methyl]hydrazono}methyl)pyrazin-2-yl]-N-(phenylmethyl)benzamide] | – | ≥ 10000 | –
6 | Nc1ncc(-c2cccc(NC(=O)Cc3c(Cl)cccc3Cl)c2)nc1C(=O)N[C@H]1CCCNC1 [Example 886, 3-amino-6-(3-{[(2,6-dichlorophenyl)acetyl]amino}phenyl)-N-[(3S)-piperidin-3-yl]pyrazine-2-carboxamide] | – | – | IC50 [1]: < 50 nM
7 | Nc1ncc(-c2cccc(CNC(=O)c3csc(-c4cccs4)n3)c2)nc1C(=O)N[C@H]1CCCNC1 [Example 948, 3-amino-N-[(3S)-piperidin-3-yl]-6-{3-[({[2-(2-thienyl)-1,3-thiazol-4-yl]carbonyl}amino)methyl]phenyl}pyrazine-2-carboxamide] | – | – | IC50 [1]: < 50 nM

Now from value to molecule, other results behind:

Row | IC50 [nM] | IC50 (Table 11, Chk1 only) [nM] | SMILES | also measured
8 | 50 to 1000 | – | CNC(=O)c1nc(-c2cccc(C(=O)NCc3cc(OC)c(OC)c(OC)c3)c2)cnc1N [Example 162, 3-amino-N-methyl-6-{3-[({[3,4,5-tris(methyloxy)phenyl]methyl}amino)carbonyl]phenyl}pyrazine-2-carboxamide] | –
9 | 50 to 1000 | – | CNC(=O)c1nc(-c2cccc(C(=O)NCc3c(Cl)ccc(C)c3F)c2)cnc1N [Example 301, 3-amino-6-[3-({[(6-chloro-2-fluoro-3-methylphenyl)methyl]amino}carbonyl)phenyl]-N-methylpyrazine-2-carboxamide] | –
10 | 50 to 1000 | – | CNC(=O)c1nc(-c2cccc(C(=O)N[C@@H]3CCN(Cc4ccc(Cl)cc4Cl)C3)c2)cnc1N [Example 360, 3-amino-6-{3-[({(3R)-1-[(2,4-dichlorophenyl)methyl]pyrrolidin-3-yl}amino)carbonyl]phenyl}-N-methylpyrazine-2-carboxamide] | –
11 | 50 to 1000 | – | CNC(=O)c1nc(-c2cccc(C(=O)NCc3ccc(Cl)cc3C)c2)cnc1N [Example 245, 3-amino-6-[3-({[(4-chloro-2-methylphenyl)methyl]amino}carbonyl)phenyl]-N-methylpyrazine-2-carboxamide] | –
12 | 50 to 1000 | – | CNC(=O)c1nc(-c2cccc(C(=O)NCc3ccc4ccccc4c3)c2)cnc1N [Example 169, 3-amino-N-methyl-6-(3-{[(naphthalen-2-ylmethyl)amino]carbonyl}phenyl)pyrazine-2-carboxamide] | –
13 | – | 50 to 1000 | CNC(=O)c1nc(-c2cccc(CN[C@@H](C)c3ccccc3)c2)cnc1N [Example 427, 3-amino-N-methyl-6-[3-({[(1S)-1-phenylethyl]amino}methyl)phenyl]pyrazine-2-carboxamide] | –
